The values below come from patent US8853424B2 (Japan Science and Technology Agency, priority 2008, dated 2014).

A word on the IC50: it is the concentration at which inhibition is half-maximal.

The subject of experiment [1] is Truncated N-terminal huntington 150 Q-EGFP-Neuron 2a cells. Nature of the experiment: Measurement of x-Fold (polyglutamine aggregation inhibitory activity). Format: cell-based. Here is the method: In the present invention, the polyglutamine aggregation inhibitory activity (x-Fold) can be measured, for example, by the method described in the Example.
The number of the aggregated cells, and the total number of cells were counted by Array Scan V T1 (manufactured by Cellomics, Pittuburg, USA), and the ratio of the aggregated cells to the total number of cells was determined (x-Fold). […]

Experiment [2] relates to SOC (store operated calcium channel). Nature of the experiment: Measurement of SOC IC50 (thapsigargin store depletion, calcium re-addition, CHO cells). Format: cell-based. The following applies: read-out: SOC IC50. As for the experimental part: The SOC (store operated calcium channel)-suppressive action can be measured by the method described in the Example and using, for example, FDSS 3000.
CHO cell culture medium was replaced with a BSS solution which is an extracellular fluidfree of calcium, the compound of the present invention was added 1 min later, and 1 μM thapsigargin was allowed to act thereon 2 min later to deplete intracellular calcium store. […]

For a further experiment, the system named is transglutaminase (TGase). As to the kind of experiment: Measurement of TG (TGase inhibitory activity, monodansyl cadaverine / N,N-dimethylcasein fluorescence, FDSS 3000). The format is biochemical. The procedure, abridged:
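Compound (1 μL of 10 mM stock) added to 0.1 mL reaction: 100 mM HEPES-NaOH pH 7.5, 1 mM CaCl2, 20 μM monodansyl cadaverine, 0.05 mg/mL N,N-dimethylcasein, 5 μg/mL TGase. Rate of fluorescence change at 340 nm measured; DMSO control set to 100; TG50 is the concentration halving activity.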

Where [3] appears, read: polyglutamine aggregation inhibitory activity, Table 1.
[4] abbreviates: ratio of aggregated cells to total number of cells, compound 20 μM, 20 hr, almost 1 without compound, smaller = stronger inhibition.
The mark [5] stands for this setting: Cricetulus griseus, CHO, CHO cells, 1 μM thapsigargin, 2 mM calcium chloride.
The mark [6] stands for this setting: Cricetulus griseus, CHO, Table 1.
Where [7] appears, read: TGase activity with compound (10 mM, 1 μL in 0.1 ml enzyme reaction solution), DMSO control taken as 100.
The mark [8] stands for this setting: TGase inhibitory activity value, Table 1.
The mark [9] stands for this setting: polyglutamine aggregation, Truncated N-terminal huntington 150 Q-EGFP-Neuron 2a cells.
[10] abbreviates: CHO cells, 1 μM thapsigargin, 2 mM calcium chloride.
Setting [11] is: TGase inhibitory activity measurement, unit not given.

Where two headings read alike, the source gives them in different places.

Turning to `CC(C)(C)B(O)c1ccccc1` [Example 109, tertiary-butyl phenyl borinic acid], the x-Fold in experiment [1] (setting [3]) and in experiment [1] (setting [4]) was 1.02 throughout. In addition, the half-inhibitory concentration (IC50) in experiment [2] (setting [5]) and in experiment [2] (setting [6]) was greater than 10000 nM each time. Also, the “TGase activity remaining (% of DMSO control = 100)” value with transglutaminase (TGase) (setting [7]) and in the experiment with transglutaminase (TGase) (setting [8]) was 108 each time.

For the molecule `NCC(N)C(=O)OB(c1ccccc1)c1ccccc1` (stereo not drawn) [Example 272, diphenyl(2,3-diaminopropionate-O,N)borane], the x-Fold in experiment [1] (polyglutamine aggregation inhibitory activity, Table 1, listed as 2043) was determined as 0.09; in experiment [1] (setting [4]), 0.09. The half-inhibitory concentration (IC50) in experiment [2] (setting [5]) and in experiment [2] (setting [6]) was 300 nM in each case. The “TGase activity remaining (% of DMSO control = 100)” value with transglutaminase (TGase) (setting [7]) was 83; with transglutaminase (TGase) (TGase inhibitory activity value, Table 1, listed as 2043) it was 83.

As to `COc1ccc(B(OCCN)c2ccc(COCc3ccc(B(OCCN)c4ccc(OC)cc4)cc3)cc2)cc1` [Example 412, bis(4,4′-(p-methoxyphenyl-aminoethoxyboryl)benzyl)ether], the x-Fold in experiment [1] (setting [9]) and in experiment [1] (setting [4]) was 0.89 throughout. Further, the IC50 in experiment [2] (setting [10]) was 2000 nM. Besides, the “TGase activity remaining (% of DMSO control = 100)” value in the experiment on transglutaminase (TGase) (setting [7]) and with transglutaminase (TGase) (setting [11]) was 65 in each case.

Turning to `NC(=O)CCC(N)C(=O)OB(c1ccc(Oc2ccc(B(OC(=O)C(N)CCC(N)=O)c3cccc4ccccc34)cc2)cc1)c1cccc2ccccc12` (stereo not drawn) [Example 444, bis(4,4′-(naphthylglutamineboryl)phenyl)ether], the x-Fold in experiment [1] (setting [9]) and in experiment [1] (setting [4]) was 0.65 each time. Further, the IC50 in experiment [2] (setting [10]) amounted to 1400 nM. Moreover, the “TGase activity remaining (% of DMSO control = 100)” value with transglutaminase (TGase) (setting [7]) and in the experiment with transglutaminase (TGase) (setting [11]) was 20 in each case.

As for `Cc1ccc(B(OCCN)c2ccc(COCc3ccc(B(OCCN)c4ccc(C)c(Cl)c4)cc3)cc2)cc1Cl` [Example 420, bis(4,4′-(3-chloro-4-methylphenyl-aminoethoxyboryl)benzyl)ether], the x-Fold in experiment [1] (setting [9]) and in experiment [1] (setting [4]) was 0.81 in each case. Also, the IC50 in experiment [2] (setting [10]) is 1200 nM. The “TGase activity remaining (% of DMSO control = 100)” value in the experiment with transglutaminase (TGase) (setting [7]) and in the experiment on transglutaminase (TGase) (setting [11]) was −3 each time.

Take `NCCCCC(N)C(=O)OB(c1ccccc1)c1ccccc1` (stereo not drawn) [Example 271, diphenyl(lysinate-O,N)borane]: the x-Fold in experiment [1] (setting [3]) and in experiment [1] (setting [4]) was 1.07 in each case. Further, the IC50 in experiment [2] (setting [5]) and in experiment [2] (setting [6]) was 500 nM in each case. Moreover, the “TGase activity remaining (% of DMSO control = 100)” value with transglutaminase (TGase) (setting [7]) and in the experiment with transglutaminase (TGase) (setting [8]) was 109 each time.

In the case of `OB(c1ccccc1)c1ccc(COCc2ccccc2B(O)c2ccccc2)cc1` [Example 331, (2-(phenylhydroxyboryl)benzyl)(4-(phenylhydroxyboryl)benzyl)ether], the x-Fold in experiment [1] (setting [3]) and in experiment [1] (setting [4]) was 0.98 in each case. In addition, the IC50 in experiment [2] (setting [5]) and in experiment [2] (setting [6]) was 1000 nM each time. Further, the “TGase activity remaining (% of DMSO control = 100)” value in the experiment on transglutaminase (TGase) (setting [7]) and in the experiment on transglutaminase (TGase) (setting [8]) was 101 throughout.

As to `Cc1ccc(B(OC(=O)C(N)CC(N)=O)c2ccc(C)c(Cl)c2)cc1Cl` (stereo not drawn) [Example 282, di(3-chloro-4-methylphenyl)(asparaginate-O,N)borane], the x-Fold in experiment [1] (setting [4]) was found to be 0.95. For the same molecule, the half-maximal inhibitory concentration (IC50) in experiment [2] (setting [5]) was 300 nM. The “TGase activity remaining (% of DMSO control = 100)” value in the experiment on transglutaminase (TGase) (setting [7]) was determined as 112.

For `NCCCCC(N)C(=O)OB(c1ccccc1)c1cccc(COCc2cccc(B(OC(=O)C(N)CCCCN)c3ccccc3)c2)c1` (stereo not drawn) [Example 475, bis(3,3′-(phenyl-lysineboryl)benzyl)ether], the x-Fold in experiment [1] (setting [9]) and in experiment [1] (setting [4]) was 1.01 throughout. In addition, in experiment [2] (setting [10]), the concentration for half-maximal inhibition (IC50) came to 600 nM. In addition, the “TGase activity remaining (% of DMSO control = 100)” value with transglutaminase (TGase) (setting [7]) and with transglutaminase (TGase) (setting [11]) was 21 throughout.

With `OB(c1ccccc1)c1ccccc1` [Example 488, diphenylborinic acid], the x-Fold turned out to be 0.83 in experiment [1] (setting [3]), 1.01 in experiment [1] (setting [9]) and 1.01 in experiment [1] (setting [4]). Also, the IC50 was 4000 nM in experiment [2] (setting [5]) and 4000 nM in experiment [2] (Cricetulus griseus, CHO, CHO cells, thapsigargin store depletion). In addition, the “TGase activity remaining (% of DMSO control = 100)” value in the experiment with transglutaminase (TGase) (setting [7]) and in the experiment with transglutaminase (TGase) (setting [11]) was 108 each time.

With `CN(C)CCOB(c1ccc(COCc2ccc(B(OCCN(C)C)c3ccc(C(F)(F)F)cc3)cc2)cc1)c1ccc(C(F)(F)F)cc1` [Example 424, bis(4,4′-(p-trifluoromethylphenyl-N,N-dimethylaminoethoxyboryl)benzyl)ether], the x-Fold in experiment [1] (setting [3]) amounted to 0.69; in experiment [1] (setting [9]) it was 1.03; in experiment [1] (setting [4]), 1.03. Moreover, the IC50 in experiment [2] (setting [10]) came to 1200 nM. The “TGase activity remaining (% of DMSO control = 100)” value in the experiment on transglutaminase (TGase) (setting [7]) and in the experiment with transglutaminase (TGase) (setting [11]) was 22 each time.

`O=C1O[B-](c2ccccc2)(c2ccccc2)[NH2+]C1Cc1ccccc1` (stereo not drawn) [Example 259, diphenyl(phenylalaninate-O,N)borane]: the x-Fold in experiment [1] (setting [3]) and in experiment [1] (setting [4]) was 0.97 in each case. Further, the half-inhibitory concentration (IC50) in experiment [2] (setting [5]) and in experiment [2] (setting [6]) was 2500 nM each time. For the same molecule, the “TGase activity remaining (% of DMSO control = 100)” value in the experiment on transglutaminase (TGase) (setting [7]) and in the experiment on transglutaminase (TGase) (setting [8]) was 67 in each case.

With `NCCNCCOB(c1ccccc1)c1ccc(Oc2ccc(B(OCCNCCN)c3ccccc3)cc2)cc1` [Example 396, bis(4,4′-(phenyl-N-aminoethyl-aminoethoxyboryl)phenyl)ether], the x-Fold in experiment [1] (setting [3]) and in experiment [1] (setting [4]) was 0.58 throughout. Moreover, the IC50 in experiment [2] (setting [10]) came to 1200 nM. In addition, the “TGase activity remaining (% of DMSO control = 100)” value in the experiment with transglutaminase (TGase) (setting [7]) and in the experiment with transglutaminase (TGase) (setting [8]) was 3 throughout.

With `CN(C)CCOB(c1ccccc1)c1ccc(COc2ccc(B(OCCN(C)C)c3ccccc3)cc2)cc1` [Example 428, (4-phenyl-N,N-dimethylaminoethoxyborylphenyl) (4′-phenyl-N,N-dimethylaminoethoxyborylbenzyl)ether], the x-Fold came out at 0.98 in experiment [1] (setting [3]), 0.82 in experiment [1] (setting [9]) and 0.82 in experiment [1] (setting [4]). Also, in experiment [2] (setting [10]), the half-inhibitory concentration (IC50) turned out to be 1500 nM. Besides, the “TGase activity remaining (% of DMSO control = 100)” value with transglutaminase (TGase) (setting [7]) and with transglutaminase (TGase) (setting [11]) was 53 throughout.

As to `OB(c1ccccc1)c1ccc(COCc2ccc(B(O)c3ccccc3)cc2)cc1` [Example 137, bis((4,4′-phenylhydroxyboryl)benzyl)ether], in experiment [1] (setting [4]), the x-Fold is given as 0.99. The IC50 in experiment [2] (setting [10]) turned out to be 300 nM. The “TGase activity remaining (% of DMSO control = 100)” value with transglutaminase (TGase) (setting [7]) is 14.

Consider `OB(c1ccccc1)c1cccc(COCc2cccc(B(O)c3ccccc3)c2)c1` [Example 7, bis(3,3′-(phenylhydroxyboryl)benzyl)ether], for which the x-Fold in experiment [1] (setting [4]) stood at 1.03. In addition, in experiment [2] (setting [10]), the concentration for half-maximal inhibition (IC50) came to 200 nM. In addition, the “TGase activity remaining (% of DMSO control = 100)” value in the experiment with transglutaminase (TGase) (setting [7]) is 14.

As for `NCCSB(c1ccccc1)c1ccc(-c2ccc(B(SCCN)c3ccccc3)cc2)cc1` [Example 9, 4,4′(phenyl-2-aminoethylthioboryl)diphenyl], the x-Fold in experiment [1] (setting [3]) and in experiment [1] (setting [4]) was 0.87 throughout. The IC50 in experiment [2] (setting [10]) was determined as 500 nM. For the same molecule, the “TGase activity remaining (% of DMSO control = 100)” value in the experiment with transglutaminase (TGase) (setting [7]) and in the experiment with transglutaminase (TGase) (setting [8]) was 12 in each case.

Regarding `NC(COB(c1ccccc1)c1ccc(COCc2ccc(B(OCC(N)Cc3ccccc3)c3ccccc3)cc2)cc1)Cc1ccccc1` (stereo not drawn) [Example 479, bis(4,4′-(phenyl-2-benzyl-2-amino-ethoxyboryl)benzyl)ether], the x-Fold in experiment [1] (setting [9]) and in experiment [1] (setting [4]) was 1.00 throughout. For the same molecule, the IC50 in experiment [2] (setting [10]) came out at 1500 nM. Also, the “TGase activity remaining (% of DMSO control = 100)” value with transglutaminase (TGase) (setting [7]) and in the experiment with transglutaminase (TGase) (setting [11]) was 54 each time.

In the case of `NC(=O)NCCCC(N)C(=O)OB(c1ccccc1)c1ccccc1` (stereo not drawn) [Example 307, diphenyl(citrullinate-O,N)borane], the x-Fold in experiment [1] (setting [3]) and in experiment [1] (setting [4]) was 1.06 throughout. Moreover, the 50% inhibitory concentration (IC50) in experiment [2] (setting [5]) and in experiment [2] (setting [6]) was 500 nM in each case. Besides, the “TGase activity remaining (% of DMSO control = 100)” value in the experiment with transglutaminase (TGase) (setting [7]) and with transglutaminase (TGase) (setting [8]) was 54 each time.

In the case of “4,4′-((2-aminoethoxy)(3-chloro-4-methylphenyl)boryl)diphenylether [Example 249]”, the x-Fold in experiment [1] (setting [3]) and in experiment [1] (setting [4]) was 0.74 each time. Further, the half-maximal inhibitory concentration (IC50) in experiment [2] (setting [10]) came to 300 nM. In addition, the “TGase activity remaining (% of DMSO control = 100)” value in the experiment on transglutaminase (TGase) (setting [7]) and in the experiment on transglutaminase (TGase) (setting [8]) was 25 each time.

Turning to `CCCCNCCOB(c1ccccc1)c1cccc(COCc2cccc(B(OCCNCCCC)c3ccccc3)c2)c1` [Example 473, bis(3,3′-(phenyl-N-butylaminoethoxyboryl)benzyl)ether], the x-Fold in experiment [1] (setting [9]) and in experiment [1] (setting [4]) was 0.96 each time. Moreover, in experiment [2] (setting [10]), the half-inhibitory concentration (IC50) was found to be 500 nM. Moreover, the “TGase activity remaining (% of DMSO control = 100)” value in the experiment on transglutaminase (TGase) (setting [11]) is reported as −4.
